Values of other authors as cited in patent US10251905B2, “Tissue maintenance” (Hibernation Therapeutics, A KF LLC, priority 2006, dated 2019).

Tests used:
NK(3) receptor = molecular target: T1, NK(3) receptor (Homo sapiens, UniProt P29371); conditions: relative to NK(1)
T1 sequence (P29371 1-465): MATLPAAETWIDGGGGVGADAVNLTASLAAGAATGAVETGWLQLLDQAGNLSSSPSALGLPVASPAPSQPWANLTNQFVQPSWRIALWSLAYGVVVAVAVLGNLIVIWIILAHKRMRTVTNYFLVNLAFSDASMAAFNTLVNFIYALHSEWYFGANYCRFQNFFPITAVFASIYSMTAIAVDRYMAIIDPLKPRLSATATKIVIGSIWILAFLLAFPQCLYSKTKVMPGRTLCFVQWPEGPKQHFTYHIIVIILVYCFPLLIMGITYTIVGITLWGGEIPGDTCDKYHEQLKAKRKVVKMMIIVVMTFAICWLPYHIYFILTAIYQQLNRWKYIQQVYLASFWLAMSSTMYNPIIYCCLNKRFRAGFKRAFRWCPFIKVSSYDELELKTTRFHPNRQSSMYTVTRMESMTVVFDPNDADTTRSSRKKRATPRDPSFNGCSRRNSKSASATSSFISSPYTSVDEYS

NK(2) receptor = molecular target: T2, NK(2) receptor (Homo sapiens, UniProt P21452); conditions: relative to NK(1)
T2 sequence (P21452 1-398): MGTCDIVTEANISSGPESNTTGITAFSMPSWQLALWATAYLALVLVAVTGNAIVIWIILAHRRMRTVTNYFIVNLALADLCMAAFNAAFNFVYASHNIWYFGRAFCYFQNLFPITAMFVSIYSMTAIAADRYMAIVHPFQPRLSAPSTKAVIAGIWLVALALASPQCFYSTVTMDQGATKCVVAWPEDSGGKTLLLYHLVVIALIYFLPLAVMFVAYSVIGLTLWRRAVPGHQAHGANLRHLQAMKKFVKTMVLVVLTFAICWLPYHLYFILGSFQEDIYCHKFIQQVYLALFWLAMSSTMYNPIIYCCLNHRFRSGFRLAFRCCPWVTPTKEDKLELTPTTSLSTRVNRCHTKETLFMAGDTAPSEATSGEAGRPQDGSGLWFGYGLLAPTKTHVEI

human NK(1) receptor = human NK(1) receptor (Homo sapiens, UniProt P25103)
human NK(1) receptor, sequence (P25103 whole entry): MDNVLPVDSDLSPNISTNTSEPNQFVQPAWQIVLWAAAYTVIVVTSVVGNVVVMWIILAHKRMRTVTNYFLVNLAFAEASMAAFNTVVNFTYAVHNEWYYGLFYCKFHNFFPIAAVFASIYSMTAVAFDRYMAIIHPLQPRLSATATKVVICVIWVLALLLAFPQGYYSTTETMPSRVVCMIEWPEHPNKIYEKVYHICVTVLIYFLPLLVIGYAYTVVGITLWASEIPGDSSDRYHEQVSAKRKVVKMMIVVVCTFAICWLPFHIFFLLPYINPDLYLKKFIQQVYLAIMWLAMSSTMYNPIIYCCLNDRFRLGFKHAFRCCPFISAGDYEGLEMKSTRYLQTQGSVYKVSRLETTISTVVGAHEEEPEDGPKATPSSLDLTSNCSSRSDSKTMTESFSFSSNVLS

| selectivity toward NK(3) receptors (NK(3) receptor) | selectivity toward NK(2) receptors (NK(2) receptor) | Ki (human NK(1) receptor) | half life in the blood | Compound |
| --- | --- | --- | --- | --- |
| over 200 fold | over 200 fold | 0.45 nM |  | Cc1cccc(C)c1NC(=O)C[C@H]1CCN(C(=O)c2cc(C(F)(F)F)cc(C(F)(F)F)c2)[C@@H](Cc2ccccc2)C1.O=C(O)C[C@H](O)C(=O)O (relative stereo) [R116301, (2R-trans)-4-[1-[3,5-bis(trifluoromethyl)benzoyl]-2-(phenylmethyl)-4-piperidinyl]-N-(2,6-dimethylphenyl)-1-acetamide (S)-Hydroxybutanedioate] |
|  |  |  | about 10 seconds | Nc1ncnc2c1ncn2[C@@H]1O[C@H](CO)[C@@H](O)[C@H]1O [adenosine] |
